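Cells were grown in 96-well plates and exposed to each compound for 48 hours at five concentrations; endpoints were interpolated linearly between bracketing concentrations, or set to the highest concentration if not reached. Here, GI50 denotes the concentration required for 50% inhibition of growth.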 Active and inactive are the calls of the source. Rule as the data show it: active = GI50 up to about 1.1 µM and inactive = higher.
Columns and labels:
Experiment in all cases: growth of human tumour cells (NCI), 48 h
A498 = system: A498
ACHN = system: ACHN
CAKI-1 = system: CAKI-1
COLO 205 = system: COLO 205
DMS-114 = system: DMS-114
DU-145 = system: DU-145
HCT-116 = system: HCT-116
Hs-578T = system: Hs-578T
IGROV-1 = system: IGROV-1
K562 = system: K562
MDA-MB-231 = system: MDA-MB-231
Malme-3M = system: Malme-3M
NCI-H23 = system: NCI-H23
NCI-H460 = system: NCI-H460
NCI/ADR-RES = system: NCI/ADR-RES
OVCAR-5 = system: OVCAR-5
PC-3 = system: PC-3
SF-268 = system: SF-268
SK-MEL-5 = system: SK-MEL-5
T47D = system: T47D

Measured: GI50

O=C(O)CNCc1c2ccccc2nc2ccccc12
inactive: A498 66.1 µM | ACHN 31.1 µM | CAKI-1 35.7 µM | COLO 205 41 µM | DMS-114 20.7 µM | DU-145 > 100 µM | HCT-116 12.1 µM | Hs-578T 20.4 µM | IGROV-1 45.9 µM | K562 8.85 µM | MDA-MB-231 43 µM | Malme-3M > 74.5 µM | NCI-H23 35.6 µM | NCI-H460 39.2 µM | NCI/ADR-RES 26.5 µM | OVCAR-5 > 85.9 µM | PC-3 27.2 µM | SF-268 32.7 µM | SK-MEL-5 25.7 µM | T47D 31.7 µM

CC1(C)OC(COCCOCCCCCO)C(COCCOCCCCCO)O1 (centres undefined)
inactive: A498 > 100 µM | ACHN > 100 µM | CAKI-1 > 100 µM | COLO 205 > 100 µM | DMS-114 > 100 µM | HCT-116 > 100 µM | IGROV-1 > 100 µM | K562 > 100 µM | Malme-3M > 100 µM | NCI-H23 > 100 µM | NCI-H460 > 100 µM | OVCAR-5 > 100 µM | SF-268 > 100 µM | SK-MEL-5 > 100 µM

From ChEMBL document CHEMBL1201862, “PubChem BioAssay data set” (2004)
